Measured values taken from the supplement of paper PMC10307832.

Experiments:
Test in all cases: relative viability (nuclei count vs DMSO), 5 days (fraction); higher = more cells survive
XMD13-2 + Lapatinib = compound: C1CC1C(=O)NC2=NNC3=C2C=CC(=C3)C4=CC(=CC=C4)C(=O)NC5CC5 [XMD13-2] + CS(=O)(=O)CCNCc1ccc(-c2ccc3ncnc(Nc4ccc(OCc5cccc(F)c5)c(Cl)c4)c3c2)o1 [Lapatinib] (partner 2 µM)
In short: (§1)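 Dosing by pin tool came one day after lung cancer cell lines were seeded in 1536-well plates, using either one drug or a fixed anchor-drug dose plus five library-drug doses (not always all listed) in √10 steps. After 5 days, nuclei were counted on 4× images. Relative viability is treated-well nuclei count divided by vehicle-well nuclei count, and values are medians of duplicate plates.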

ALW-II-49-7 + Pemetrexed = compound: Cc1ccc(C(=O)Nc2cccc(C(F)(F)F)c2)cc1Nc1cncc(C(N)=O)c1 [ALW-II-49-7] + Nc1nc2[nH]cc(CCc3ccc(C(=O)N[C@@H](CCC(=O)O)C(=O)O)cc3)c2c(=O)[nH]1 [Pemetrexed] (partner 0.2 µM)
In short: as §1

Dasatinib + Lapatinib = compound: Cc1nc(Nc2ncc(C(=O)Nc3c(C)cccc3Cl)s2)cc(N2CCN(CCO)CC2)n1 [Dasatinib] + CS(=O)(=O)CCNCc1ccc(-c2ccc3ncnc(Nc4ccc(OCc5cccc(F)c5)c(Cl)c4)c3c2)o1 [Lapatinib] (partner 2 µM)
In short: as §1

Dasatinib + Pemetrexed = compound: Cc1nc(Nc2ncc(C(=O)Nc3c(C)cccc3Cl)s2)cc(N2CCN(CCO)CC2)n1 [Dasatinib] + Nc1nc2[nH]cc(CCc3ccc(C(=O)N[C@@H](CCC(=O)O)C(=O)O)cc3)c2c(=O)[nH]1 [Pemetrexed] (partner 0.2 µM)
In short: as §1

| Cell Line | relative viability (XMD13-2 + Lapatinib; first compound 0.05 µM) | relative viability (XMD13-2 + Lapatinib; first compound 0.1581 µM) | relative viability (XMD13-2 + Lapatinib; first compound 0.5 µM) | relative viability (XMD13-2 + Lapatinib; first compound 1.581 µM) | relative viability (XMD13-2 + Lapatinib; first compound 5 µM) | relative viability (ALW-II-49-7 + Pemetrexed; first compound 0.08 µM) | relative viability (ALW-II-49-7 + Pemetrexed; first compound 0.253 µM) | relative viability (ALW-II-49-7 + Pemetrexed; first compound 0.8 µM) | relative viability (ALW-II-49-7 + Pemetrexed; first compound 2.53 µM) | relative viability (ALW-II-49-7 + Pemetrexed; first compound 8 µM) | relative viability (Dasatinib + Lapatinib; first compound 0.005 µM) | relative viability (Dasatinib + Lapatinib; first compound 0.01581 µM) | relative viability (Dasatinib + Lapatinib; first compound 0.05 µM) | relative viability (Dasatinib + Lapatinib; first compound 0.1581 µM) | relative viability (Dasatinib + Lapatinib; first compound 0.5 µM) | relative viability (Dasatinib + Pemetrexed; first compound 0.005 µM) | relative viability (Dasatinib + Pemetrexed; first compound 0.01581 µM) | relative viability (Dasatinib + Pemetrexed; first compound 0.05 µM) | relative viability (Dasatinib + Pemetrexed; first compound 0.1581 µM) | relative viability (Dasatinib + Pemetrexed; first compound 0.5 µM) |
| --- | --- | --- | --- | --- | --- | --- | --- | --- | --- | --- | --- | --- | --- | --- | --- | --- | --- | --- | --- | --- |
| NCI-H2347 | 0.987 | 0.93 | 0.912 | 1.04 | 0.973 | 0.438 | 0.441 | 0.417 | 0.509 | 0.377 | 0.872 | 0.951 | 1.04 | 0.691 | 0.386 | 0.375 | 0.38 | 0.342 | 0.253 | 0.259 |
| NCI-H2405 | 1.18 | 1 | 0.95 | 0.957 | 1.09 | 1.14 | 1.12 | 0.898 | 1.06 | 0.791 | 0.684 | 0.81 | 0.465 | 0.222 | 0.17 | 0.852 | 0.65 | 0.422 | 0.229 | 0.22 |
| NCI-H3122 | 1.04 | 1.03 | 0.99 | 0.982 | 0.848 | 0.201 | 0.174 | 0.207 | 0.216 | 0.186 | 0.999 | 1.02 | 1.02 | 1.01 | 0.84 | 0.208 | 0.205 | 0.194 | 0.198 | 0.186 |
| PC-3 [JPC-3] | 0.453 | 0.467 | 0.437 | 0.498 | 0.426 | 0.976 | 0.909 | 0.843 | 1.27 | 0.947 | 0.422 | 0.393 | 0.444 | 0.331 | 0.335 | 1.22 | 1.1 | 1.08 | 0.717 | 0.474 |
| PC-14 | 0.38 | 0.324 | 0.39 | 0.337 | 0.345 | 0.15 | 0.165 | 0.13 | 0.138 | 0.113 | 0.29 | 0.282 | 0.242 | 0.208 | 0.0848 | 0.146 | 0.121 | 0.108 | 0.119 | 0.124 |
| RERF-LC-KJ | 0.912 | 0.841 | 0.858 | 0.816 | 0.78 | 0.475 | 0.518 | 0.472 | 0.439 | 0.478 | 0.819 | 0.758 | 0.84 | 0.813 | 0.809 | 0.53 | 0.466 | 0.405 | 0.471 | 0.457 |
| SK-LU-1 | 1.14 | 0.97 | 0.971 | 0.707 | 0.536 | 0.992 | 1.08 | 1.04 | 0.834 | 0.569 | 0.467 | 0.53 | 0.424 | 0.305 | 0.298 | 0.864 | 0.617 | 0.467 | 0.306 | 0.282 |
| SK-MES-1 | 0.578 | 0.461 | 0.519 | 0.477 | 0.514 | 0.888 | 0.964 | 0.916 | 0.867 | 0.686 | 0.467 | 0.482 | 0.399 | 0.315 | 0.258 | 0.985 | 0.879 | 0.709 | 0.314 | 0.224 |
| SW 1573 | 1.13 | 1.2 | 1.28 | 1.06 | 1.1 | 0.608 | 0.847 | 0.77 | 0.667 | 0.827 | 1.15 | 0.967 | 1.01 | 0.738 | 0.826 | 0.889 |  | 0.742 | 0.607 | 0.548 |
